Results on 27 compounds are retold here after US12337000B2, “Therapeutic modulators of the reverse mode of ATP synthase” (priority 2017, dated 2025).

“Also recorded” adds a separate entry of the source. Counter-ions that a name gives are not always drawn. Like-named read-outs stand apart in the source and are kept apart here.

The target of data set [1] is T1, F1F0 ATP hydrolase (Bos taurus, UniProt P00829+P19483).
T1 construct: from tissue; host or cells: sub-mitochondrial particles (SMPs)
The settings on record: cited from earlier work.

Data set [2] has as its system 59 cancer cell lines (NCI-60). Nature of the data set: NCI-60 one-dose in vitro assay. Type of data set: cell-based, human. From the text:
FIGS. 1, 2, 3, 4, 5, 6, 7, 8 show results from the NCI-60 one-dose in vitro assay at the Developmental Therapeutics Program (DTP), at the National Cancer Institute (NCI, Bethesda, MD, USA). Its protocol is well known to those of the art, and it tests the effect, if any, of a test compound on the growth/survivability of a cancer cell line as compared to the no compound control. […] However, a constant is that there is always representative cell lines from leukemia, melanoma and cancers of the lung, colon, brain, ovary, breast, prostate and kidney. In a one-dose NCI compound test report, NCI report a number for each cell line, which they call “Growth Percent”, which is its growth relative to the no-compound control, and relative to the time zero number of cells. This reported parameter allows detection of both growth inhibition (values between 0 and 100) and lethality (values less than 0). For example, an NCI “Growth Percent” value of 100 means no growth inhibition. Value of 40 means 60% growth inhibition. Value of 0 means no net growth over the course of the experiment. Value of −40 means 60% lethality. Value of −100 means all cells are dead. I don't present NCI one-dose data in this original format. Instead, if the NCI “Growth Percent” value for a cell is positive, it is manipulated: [100 minus this original NCI-60 “Growth Percent” data point], to yield the percentage “Growth Inhibition”. If the original NCI “Growth Percent” value for a cell is negative, it is made positive to be the percentage of original cancer cells (at time zero) killed: “Percentage Killed” {and in these cases, of course, all growth has been inhibited, so percentage “Growth Inhibition” is then specified to be 100% for this cancer cell line}. In my one-dose figures, “Growth Inhibition” (0-100%) is presented on the x-axis and, if applicable, “Percentage Killed” (0-100%) further along on the x-axis. The latter is applicable when there is not just cancer growth inhibition but a reduction in the number of cancer cells from the start time i.e. when the compound is not merely slowing cancer growth, but is actively reducing the number of cancer cells from the starting number. In cases where there is only growth inhibition, only “Growth inhibition” is presented on the x-axis.
NCI-60 tests are performed at a controlled temperature of 37° C..
To perform the anti-cancer testing reported: BMS-199264 hydrochloride was purchased from Sigma-Aldrich. BTB06584 was purchased from AdooQ Bioscience, Irvine, CA, USA. Compounds 19a (separated into 6a and 6b stereoisomers) and 31 were synthesized by reaction schemes disclosed herein. Almitrine dimesylate was purchased from Ak Scientific, Palo Alto, CA, USA.

The target of data set [3] is T2, F1F0-ATP hydrolysis (Homo sapiens, UniProt P06576+P25705).
T2 construct: BTB06584 potency information (is not an EC50) is from a whole cell study [13]; endogenous in cells
The settings on record: cited from earlier work.

For data set [4] the following is noted: cited from earlier work.
The conditions of data set [5]: cited from earlier work. This is another data set of the same source.
[6] abbreviates: from [8], Formula (II), read-out: EC50 F1F0 ATP hydrolase.

On to `O=S(=O)(c1cc(Cl)ccc1Cl)N1Cc2ccccc2N(Cc2cnc[nH]2)C(CCc2ccccc2)C1` (centres unmarked) [2,5-di-Cl—Ph, SO2,5-yl], for which the EC50 in data set [1] (setting [6]) was 0.158 µM.

In the case of `N#CN=C(Nc1ccccc1Cl)NC(Cn1ccnc1)c1ccc(Cl)cc1Cl` (centres unmarked) [2-Cl, CN], the EC50 in data set [1] (Further Examples [5], Formula (I), read-out: EC50 F1F0 ATP hydrolase) is 2.23 µM.

In the case of `N#Cc1ccc(S(=O)(=O)N2Cc3ccccc3N(Cc3c[nH]cn3)C(CCc3ccccc3)C2)c(Cl)c1` (centres unmarked) [2-Cl-4-CN—Ph, SO2,5-yl], the EC50 in data set [1] (setting [6]) was 0.939 µM.

Consider `O=[N+]([O-])c1cccc(S(=O)(=O)N2Cc3ccccc3N(Cc3cnc[nH]3)C(CCc3ccccc3)C2)c1` (centres unmarked) [3-NO2—Ph, SO2,5-yl], for which the EC50 in data set [1] (setting [6]) was 0.423 µM.

As for `N#Cc1ccc(S(=O)(=O)N2Cc3ccccc3N(Cc3cnc[nH]3)C(CCc3ccccc3)C2)cc1` (centres unmarked) [4-CN—Ph, SO2,5-yl], in data set [1] (setting [6]), the EC50 was 0.255 µM.

Consider `Cc1nc(CN2c3ccccc3CN(S(=O)(=O)c3ccc(F)cc3)CC2CCc2ccccc2)c[nH]1` (centres unmarked) [4-F—Ph, SO2,2-Me-5-yl], for which the EC50 in data set [1] (setting [6]) was 9.62 µM.

As to `Cc1nc[nH]c1CN1c2ccccc2CN(S(=O)(=O)c2ccc(F)cc2)CC1CCc1ccccc1` (centres unmarked) [4-F—Ph, SO2,4-Me-5-yl], the EC50 in data set [1] (setting [6]) was 0.151 µM.

Regarding `O=S(=O)(c1ccc(F)cc1)N1Cc2ccccc2N(Cc2c[nH]cn2)C(CCc2ccccc2)C1` (centres unmarked) [4-F—Ph, SO2,5-yl], the EC50 in data set [1] (setting [6]) is 0.221 µM.

With `O=S(=O)(c1ccc(O)cc1)N1Cc2ccccc2N(Cc2cnc[nH]2)C(CCc2ccccc2)C1` (centres unmarked) [4-OH—Ph, SO2,5-yl], in data set [1] (setting [6]), the EC50 was 0.667 µM.

Consider `COc1ccc(S(=O)(=O)N2Cc3ccccc3N(Cc3c[nH]cn3)C(CCc3ccccc3)C2)cc1` (centres unmarked) [4-OMe—Ph, SO2,5-yl], for which the EC50 in data set [1] (setting [6]) is 0.077 µM.

As for `Cc1nc[nH]c1CN1c2ccccc2CN(Cc2ccc(C(C)(C)C)cc2)CC1CCc1ccccc1` (centres unmarked) [4-t-Bu—Ph, CH2,4-Me-5-yl], the EC50 in data set [1] (setting [6]) was 2.35 µM.

Turning to `CC(C)(C)c1ccc(CN2Cc3ccccc3N(Cc3cnc[nH]3)C(CCc3ccccc3)C2)cc1` (centres unmarked) [4-t-Bu—Ph, CH2,5-yl], in data set [1] (setting [6]), the EC50 was 2.14 µM.

Take `CC(C)(C)c1ccc(S(=O)(=O)N2Cc3ccccc3N(Cc3ncc[nH]3)C(CCc3ccccc3)C2)cc1` (centres unmarked) [4-t-Bu—Ph, SO2,2-yl]: the EC50 in data set [1] (setting [6]) is over 10 µM.

For `CC(C)(C)c1ccc(S(=O)(=O)N2Cc3ccccc3N(Cc3c[nH]cn3)C(CCc3ccccc3)C2)cc1` (centres unmarked) [4-t-Bu—Ph, SO2,5-yl], the EC50 in data set [1] (setting [6]) is 0.008 µM.

For the compound `CC1(C)Oc2ccc(S(=O)(=O)N3CCCCC3)cc2[C@@H](N(Cc2ncc[nH]2)c2ccc(Cl)cc2)[C@@H]1O.Cl` [BMS-199264 hydrochloride], the “anti-cancer activity (in words)” value in data set [2] (10 μM) and in data set [2] (100 μM) was “Anti-cancer activity” throughout.

`O=C(Oc1cc(S(=O)(=O)c2ccccc2)ccc1[N+](=O)O)c1ccc(Cl)cc1` [BTB06584]: the “anti-cancer activity (in words)” value is “none and No anti-cancer activity” in data set [2] (10 μM); “observed; also recorded: Anti-cancer activity” in data set [2] (100 μM). Moreover, the “inhibitory potency for F1F0-ATP hydrolysis (in words)” value in data set [3] (10 μM [13]) was “none”. In addition, the “concentration required to inhibit F1F0-ATP hydrolysis” value in data set [3] (whole cell study [13], not an EC50) is over 100 µM.

On to `O=S(=O)(c1cccc2nonc12)N1Cc2ccccc2N(Cc2cnc[nH]2)C(CCc2ccccc2)C1` (centres unmarked) [Benzofurazan-7-yl, SO2,5-yl], for which the EC50 in data set [1] (setting [6]) was 1.78 µM.

`O=S(=O)(Cc1ccccc1)N1Cc2ccccc2N(Cc2c[nH]cn2)C(CCc2ccccc2)C1` (centres unmarked) [Bn, SO2,5-yl]: the EC50 in data set [1] (setting [6]) is 2.41 µM.

In the case of `O=S(=O)(N1Cc2ccccc2N(Cc2c[nH]cn2)C(CCc2ccccc2)C1)C(F)(F)F` (centres unmarked) [CF3, SO2,5-yl], the EC50 in data set [1] (setting [6]) was 0.077 µM.

Turning to `N#Cc1cccc(C(=O)/N=C(\Nc2ccc(Cl)cc2)NC(Cn2ccnc2)c2ccc(Cl)cc2Cl)c1` (centres unmarked) [Compound 19a], in data set [1] (SMP studies in [5-8], read-out: EC50 F1F0 ATP hydrolysis / hydrolase), the EC50 is 0.033 µM.

`O=S(=O)(c1cccc2ccccc12)N1Cc2ccccc2N(Cc2cnc[nH]2)C(CCc2ccccc2)C1` (centres unmarked) [Naphth-1-y1, SO2,5-yl]: the EC50 in data set [1] (setting [6]) is 0.338 µM.

On to `O=S(=O)(c1ccccc1)N1Cc2ccccc2N(Cc2cnc[nH]2)C(CCc2ccccc2)C1` (centres unmarked) [Ph, SO2,5-yl], for which the EC50 in data set [1] (setting [6]) is 0.282 µM.

Regarding `O=S(=O)(c1cccc2cccnc12)N1Cc2ccccc2N(Cc2c[nH]cn2)C(CCc2ccccc2)C1` (centres unmarked) [Quinolin-8-yl, SO2,5-yl], the EC50 in data set [1] (setting [6]) was 2.93 µM.

With `O=S(=O)(c1cccs1)N1Cc2ccccc2N(Cc2cnc[nH]2)C(CCc2ccccc2)C1` (centres unmarked) [Thiophen-2-yl, SO2,5-yl], the EC50 in data set [1] (setting [6]) is 0.636 µM.

With `N.N.O=C([O-])C1(C(=O)[O-])CCC1.[Pt+2]` [carboplatin], the LD50 (usually the dose at which mortality reaches 50%) in data set [4] (mice, intraperitoneal injection (IP)) was 118 mg/kg.

For the compound `CN(C)CCCN1c2ccccc2CCc2ccc(Cl)cc21` [clomipramine HCl], the “LD50 {mouse, IV}” value in data set [4] (mouse, in vivo, iv) is recorded as 22 mg/kg.

For the compound `CC[C@H]1/C=C/C=C/C[C@@H](C)[C@H](O)[C@@](C)(O)C(=O)[C@@H](C)[C@H](O)[C@@H](C)C(=O)[C@@H](C)[C@H](O)[C@@H](C)/C=C/C(=O)O[C@@H]2[C@H](C)[C@H](CC1)O[C@]1(CC[C@H](C)[C@H](C[C@@H](C)O)O1)[C@H]2C` [oligomycin], the “time within which healthy rats are killed” value in data set [5] (1 mg/kg intraperitoneal, n=10 [15]) is at most 48 h. Besides, the LD33 in data set [5] (healthy rats, intraperitoneal injection [15]) is recorded as 0.5 mg/kg.
